Measured values published in EP0423247B1, “COUMAMIDINE COMPOUNDS” (ABBOTT LABORATORIES, priority 1988, dated 1990).
In brackets after ≈: the same amount, converted by molar mass.

Experiments:
[1] = tested on: Actinetobacter SP CMX 669; assay: MIC, agar dilution method (Brain Heart Infusion agar); format: cell-based; conditions: Actinetobacter SP CMX 669, grown aerobically, BHI agar, read-out: Minimum inhibitory concentrations
Protocol: (§1) Minimum inhibitory concentration (MIC) was determined by the agar dilution method, described hereinbelow, using Brain Heart Infusion agar.
(§2) Twelve petri dishes were prepared, each containing successive aqueous 2-fold dilutions of the test compounds mixed with 10 mL of sterilized Brain Heart Infusion (BHI) agar.
(§3) The MIC was defined as the lowest concentration of test compound yielding no growth, a slight haze, or sparsely isolated colonies on the inoculum spot as compared to the growth control containing no test compound.

[2] = tested on: Campylobacter jejuni ATTC 29428; assay: as above; format: cell-based; conditions: ATTC29428, Campylobacter jejuni ATTC 29428, grown aerobically, BHI agar, read-out: Minimum inhibitory concentrations
Protocol: as §1, §2, §3

[3] = tested on: Enterobacter aerogenes ATCC 13048; assay: as above; format: cell-based; conditions: Klebsiella aerogenes, ATCC13048, Enterobacter aerogenes ATCC 13048, grown aerobically, BHI agar, read-out: Minimum inhibitory concentrations
Protocol: as §1, §2, §3

[4] = tested on: Enterobacter cloacae CMX 650A; assay: as above; format: cell-based; conditions: CMX650A, grown aerobically, BHI agar, read-out: Minimum inhibitory concentrations
Protocol: as §1, §2, §3

[5] = tested on: Enterococcus faecium ATCC 8043; assay: as above; format: cell-based; conditions: ATCC8043, Enterococcus faecium ATCC 8043, grown aerobically, BHI agar, read-out: Minimum inhibitory concentrations
Protocol: as §1, §2, §3

Escherichia coli JUHL = assay: as above; format: cell-based; conditions: grown aerobically, BHI agar, read-out: Minimum inhibitory concentrations
Protocol: as §1, §2, §3

Escherichia coli SS = assay: as above; format: cell-based; conditions: grown aerobically, BHI agar, read-out: Minimum inhibitory concentrations
Protocol: as §1, §2, §3

[6] = tested on: Haemophilus influenzae 503B; assay: as above; format: cell-based; conditions: grown aerobically, BHI agar, read-out: Minimum inhibitory concentrations
Protocol: as §1, §2, §3

[7] = tested on: Klebsiella pneumoniae ATCC 8045; assay: as above; format: cell-based; conditions: ATCC8045, Klebsiella pneumoniae ATCC 8045, grown aerobically, BHI agar, read-out: Minimum inhibitory concentrations
Protocol: as §1, §2, §3

[8] = tested on: Neisseria gonorrhoeae 35FAMPI; assay: as above; format: cell-based; conditions: grown aerobically, BHI agar, read-out: Minimum inhibitory concentrations
Protocol: as §1, §2, §3

[9] = tested on: Neisseria gonorrhoeae CMX 591; assay: as above; format: cell-based; conditions: CMX591, Neisseria gonorrhoeae CMX 591, grown aerobically, BHI agar, read-out: Minimum inhibitory concentrations
Protocol: as §1, §2, §3

[10] = tested on: Proteus mirabilis CMX 704F; assay: as above; format: cell-based; conditions: CMX704F, grown aerobically, BHI agar, read-out: Minimum inhibitory concentrations
Protocol: as §1, §2, §3

[11] = tested on: Proteus vulgaris ABBOTT JJ; assay: as above; format: cell-based; conditions: grown aerobically, BHI agar, read-out: Minimum inhibitory concentrations
Protocol: as §1, §2, §3

[12] = tested on: Providencia stuartii CMX 640; assay: as above; format: cell-based; conditions: CMX640, Providencia stuartii CMX 640, grown aerobically, BHI agar, read-out: Minimum inhibitory concentrations
Protocol: as §1, §2, §3

[13] = tested on: Pseudomonas aeruginosa A5007; assay: as above; format: cell-based; conditions: Pseudomonas aeruginosa A5007, grown aerobically, BHI agar, read-out: Minimum inhibitory concentrations
Protocol: as §1, §2, §3

[14] = tested on: Pseudomonas aeruginosa ATCC 27853; assay: as above; format: cell-based; conditions: ATCC27853, Pseudomonas aeruginosa ATCC 27853, grown aerobically, BHI agar, read-out: Minimum inhibitory concentrations
Protocol: as §1, §2, §3

[15] = tested on: Pseudomonas aeruginosa BMH 10; assay: as above; format: cell-based; conditions: BMH10, Pseudomonas aeruginosa BMH 10, grown aerobically, BHI agar, read-out: Minimum inhibitory concentrations
Protocol: as §1, §2, §3

[16] = tested on: Pseudomonas aeruginosa CFS 387C; assay: as above; format: cell-based; conditions: CFS387C, grown aerobically, BHI agar, read-out: Minimum inhibitory concentrations
Protocol: as §1, §2, §3

[17] = tested on: Pseudomonas aeruginosa CFS 389; assay: as above; format: cell-based; conditions: CFS389, Pseudomonas aeruginosa CFS 389, grown aerobically, BHI agar, read-out: Minimum inhibitory concentrations
Protocol: as §1, §2, §3

[18] = tested on: Pseudomonas aeruginosa K799/WT; assay: as above; format: cell-based; conditions: grown aerobically, BHI agar, read-out: Minimum inhibitory concentrations
Protocol: as §1, §2, §3

Pseudomonas cepacia 296I = assay: as above; format: cell-based; conditions: Burkholderia cepacia, grown aerobically, BHI agar, read-out: Minimum inhibitory concentrations
Protocol: as §1, §2, §3

[19] = tested on: Serratia marcescens CMX 657E; assay: as above; format: cell-based; conditions: CMX657E, grown aerobically, BHI agar, read-out: Minimum inhibitory concentrations
Protocol: as §1, §2, §3

[20] = tested on: Serratia marcescens CMX 740C; assay: as above; format: cell-based; conditions: CMX740C, grown aerobically, BHI agar, read-out: Minimum inhibitory concentrations
Protocol: as §1, §2, §3

Staphylococcus aureus 45 = assay: as above; format: cell-based; conditions: Staphylococcus aureus 45, grown aerobically, BHI agar, read-out: Minimum inhibitory concentrations
Protocol: as §1, §2, §3

[21] = tested on: Staphylococcus aureus A5177; assay: as above; format: cell-based; conditions: Staphylococcus aureus A5177, grown aerobically, BHI agar, read-out: Minimum inhibitory concentrations
Protocol: as §1, §2, §3

[22] = tested on: Staphylococcus aureus ATCC 6538P; assay: as above; format: cell-based; conditions: ATCC6538P, grown aerobically, BHI agar, read-out: Minimum inhibitory concentrations
Protocol: as §1, §2, §3

[23] = tested on: Staphylococcus aureus CMX 686B; assay: as above; format: cell-based; conditions: CMX686B, grown aerobically, BHI agar, read-out: Minimum inhibitory concentrations
Protocol: as §1, §2, §3

[24] = tested on: Staphylococcus epidermidis 3519; assay: as above; format: cell-based; conditions: Staphylococcus epidermidis 3519, grown aerobically, BHI agar, read-out: Minimum inhibitory concentrations
Protocol: as §1, §2, §3

[25] = tested on: Streptococcus agalactiae CMX 508; assay: as above; format: cell-based; conditions: CMX508, Streptococcus agalactiae CMX 508, grown aerobically, BHI agar, read-out: Minimum inhibitory concentrations
Protocol: as §1, §2, §3

[26] = tested on: Streptococcus bovis A 5169; assay: as above; format: cell-based; conditions: Streptococcus equinus, A5169, Streptococcus bovis A 5169, grown aerobically, BHI agar, read-out: Minimum inhibitory concentrations
Protocol: as §1, §2, §3

[27] = tested on: Streptococcus pyogenes 930 CONST; assay: as above; format: cell-based; conditions: grown aerobically, BHI agar, read-out: Minimum inhibitory concentrations
Protocol: as §1, §2, §3

[28] = tested on: Streptococcus pyogenes EES 614; assay: as above; format: cell-based; conditions: EES614, Streptococcus pyogenes EES 614, grown aerobically, BHI agar, read-out: Minimum inhibitory concentrations
Protocol: as §1, §2, §3

[29] = Solubility (qualitative description); format: physicochemical
Source text: High resolution, positive ion fast atom bombardment (FAB) mass spectrometry established identical molecular ions or m/z 835.3576 for the two isomers corresponding to a formula of C₃₃H₄₉N₁₃0₁₃ (calc. 835.3577). UV lambdamax=286 nm. The coumamidine gamma 1 isomer has an imidazolidone ring at the 2 and 3 position of the terminal sugar, and the coumamidine gamma 2 isomer has an oxazolidone ring at positions 3 and 4 of the terminal sugar.

Structure (SMILES)	MIC [1] [µg/mL]	MIC [3] [µg/mL]	MIC [4] [µg/mL]	MIC [5] [µg/mL]	MIC (Escherichia coli JUHL) [µg/mL]	MIC (Escherichia coli SS) [µg/mL]	MIC [7] [µg/mL]	MIC [10] [µg/mL]	MIC [11] [µg/mL]	MIC [12] [µg/mL]	MIC [13] [µg/mL]	MIC [14] [µg/mL]	MIC [15] [µg/mL]	MIC [16] [µg/mL]	MIC [17] [µg/mL]	MIC [18] [µg/mL]	MIC (Pseudomonas cepacia 296I) [µg/mL]	MIC [19] [µg/mL]	MIC [20] [µg/mL]	MIC (Staphylococcus aureus 45) [µg/mL]	other results
CC1OC(Oc2ccc(C=CC(=O)NCCC(=N)N)cc2)C(NC(=N)N)C(O)C1NC(=O)NC1OCC(OC2OCC(O)C3NC(=O)N(C(N)=O)C23)C(O)C1NC(N)=O (stereo not drawn) [gamma 1, coumamidine gamma 1]	0.25 (≈ 0.299 µM)	1 (≈ 1.2 µM)	4 (≈ 4.79 µM)	16 (≈ 19.1 µM)	0.25 (≈ 0.299 µM)	0.5 (≈ 0.598 µM)	0.25 (≈ 0.299 µM)	1 (≈ 1.2 µM)	2 (≈ 2.39 µM)	0.5 (≈ 0.598 µM)	8 (≈ 9.57 µM)	8 (≈ 9.57 µM)	0.25 (≈ 0.299 µM)	8 (≈ 9.57 µM)	8 (≈ 9.57 µM)	8 (≈ 9.57 µM)	32 (≈ 38.3 µM)	1 (≈ 1.2 µM)	2 (≈ 2.39 µM)	0.5 (≈ 0.598 µM)	MIC [2]: 0.06 µg/mL (≈ 0.0718 µM); MIC [6]: 0.03 µg/mL (≈ 0.0359 µM); MIC [8]: 0.5 µg/mL (≈ 0.598 µM); MIC [9]: 0.5 µg/mL (≈ 0.598 µM); MIC [21]: 1 µg/mL (≈ 1.2 µM); MIC [22]: 0.25 µg/mL (≈ 0.299 µM); MIC [23]: 0.25 µg/mL (≈ 0.299 µM); MIC [24]: 0.5 µg/mL (≈ 0.598 µM); MIC [25]: 8 µg/mL (≈ 9.57 µM); MIC [26]: 16 µg/mL (≈ 19.1 µM); MIC [27]: 2 µg/mL (≈ 2.39 µM); MIC [28]: 4 µg/mL (≈ 4.79 µM); solubility in dimethylsulfoxide [29]: readily soluble; solubility in methanol [29]: slightly soluble; solubility in water [29]: readily soluble
CC1OC(Oc2ccc(C=CC(=O)NCCC(=N)N)cc2)C(NC(=N)N)C(O)C1NC(=O)NC1OCC(OC2OCC3OC(=O)NC3C2NC(N)=O)C(O)C1NC(N)=O (stereo not drawn) [gamma 2, coumamidine gamma 2]	4 (≈ 4.79 µM)	2 (≈ 2.39 µM)	4 (≈ 4.79 µM)	32 (≈ 38.3 µM)	0.5 (≈ 0.598 µM)	1 (≈ 1.2 µM)	0.5 (≈ 0.598 µM)	1 (≈ 1.2 µM)	4 (≈ 4.79 µM)	2 (≈ 2.39 µM)	16 (≈ 19.1 µM)	8 (≈ 9.57 µM)	0.5 (≈ 0.598 µM)	16 (≈ 19.1 µM)	8 (≈ 9.57 µM)	16 (≈ 19.1 µM)	> 32	2 (≈ 2.39 µM)	2 (≈ 2.39 µM)	1 (≈ 1.2 µM)	MIC [21]: 1 µg/mL (≈ 1.2 µM); MIC [22]: 0.5 µg/mL (≈ 0.598 µM); MIC [23]: 0.5 µg/mL (≈ 0.598 µM); MIC [24]: 1 µg/mL (≈ 1.2 µM); MIC [25]: 16 µg/mL (≈ 19.1 µM); MIC [26]: 32 µg/mL (≈ 38.3 µM); MIC [27]: 1 µg/mL (≈ 1.2 µM); MIC [28]: 1 µg/mL (≈ 1.2 µM); solubility in dimethylsulfoxide [29]: readily soluble; solubility in methanol [29]: slightly soluble; solubility in water [29]: readily soluble
